Literature values in patent publication US6929797B2, “Targeted therapeutic delivery of vitamin D compounds” (Bone Care International, Inc., priority 1997, dated 2005).
Like-named read-outs stand apart in the source and are kept apart here.

Experiments:
[1] = 0.5 μg/day, postmenopausal women
[2] = not given; remark: listed apart in the source

| Structure (SMILES) | toxicity (hypercalcemia and hypercalciuria) (above 0.5 μg/day) | intestinal calcium absorption and calcium balance [1] | effects on bone mass or mineral content ([2]; dosage levels below 0.5 μg/day) | patients in whom toxicity occurs (1 μg/day) | patients in whom toxicity occurs (2 μg/day) | efficacy (bone mass or bone mineral content) ([2]; 1 μg/day, Japan, population with low calcium intake) | bone mass ([2]; Two μg/day, patients exhibiting senile osteoporosis) |
| --- | --- | --- | --- | --- | --- | --- | --- |
| C=C1/C(=C\C=C2/CCC[C@]3(C)[C@@H]([C@H](C)CCCC(C)(C)O)CC[C@@H]23)C[C@@H](O)C[C@@H]1O [1α,25-dihydroxyvitamin D3] | frequently resulted in toxicity | improved | no effects |  |  |  |  |
| C=C1/C(=C\C=C2/CCC[C@]3(C)[C@@H]([C@H](C)CCCC(C)C)CC[C@@H]23)C[C@@H](O)C[C@@H]1O [1α-hydroxyvitamin D3] |  |  |  | approximately 20% | approximately 67% | efficacy is found | efficacy in increasing bone mass |
